Results as given in ChEMBL document CHEMBL3885881, “DrugMatrix”.

Legend:
Rattus norvegicus [1] = species on record: Rattus norvegicus; assay: DrugMatrix - Regimen: Daily Repeat; type: toxicity, organism-based, Sprague-Dawley; parameters: regimen Daily Repeat, gender Male, age 6-8 weeks; conditions: in vivo, po, 330 mg/kg, […], route oral GAVAGE, dose level High, time 14 day, vehicle .5 % CMC
Rattus norvegicus [2] = species on record: Rattus norvegicus; type: toxicity, organism-based, Sprague-Dawley; conditions: in vivo, po, 330 mg/kg, 24 h, route oral GAVAGE, dose level High, time 1 day, vehicle .5 % CMC
Description: DrugMatrix - Regimen: Single

Q: How did the “ABSOLUTE BASOPHIL” value (Rattus norvegicus [1]; tissue Blood) turn out when FERROCENE was run?
A: Its value is 0 CELLS/uL.

Q: What about the “ABSOLUTE EOSINOPHIL” value (Rattus norvegicus [1]; tissue Blood) of the same sequence?
A: The value was 150.8 CELLS/uL.

Q: What about the “ABSOLUTE LYMPHOCYTE” value (Rattus norvegicus [1]; tissue Blood) of the same sequence?
A: The value was 17564.8 CELLS/uL.

Q: What about the “ABSOLUTE MONOCYTE” value (Rattus norvegicus [1]; tissue Blood) of the same sequence?
A: Its value is 546.8 CELLS/uL.

Q: What about the “ABSOLUTE SEGMENTED NEUTROPHIL” value (Rattus norvegicus [1]; tissue Blood) of the same sequence?
A: The value was 2837.6 CELLS/uL.

Q: And the BASOPHIL (Rattus norvegicus [1]; tissue Blood)?
A: The BASOPHIL was 0%.

Q: And the EOSINOPHIL (Rattus norvegicus [1]; tissue Blood)?
A: Its EOSINOPHIL is 0.8%.

Q: And the “ERYTHROCYTE COUNT” value (Rattus norvegicus [1]; tissue Blood)?
A: The value was 5.16 x10E6/uL.

Q: What about the HEMATOCRIT (Rattus norvegicus [1]; tissue Blood) of the same sequence?
A: Its HEMATOCRIT is 32.2%.

Q: What about the HEMOGLOBIN (Rattus norvegicus [1]; tissue Blood) of the same sequence?
A: The HEMOGLOBIN was 11.86 G/DL.

Q: And the “LEUKOCYTE COUNT” value (Rattus norvegicus [1]; tissue Blood)?
A: The value was 21.1 x10E3/uL.

Q: And the LYMPHOCYTE (Rattus norvegicus [1]; tissue Blood)?
A: Its LYMPHOCYTE is 83.2%.

Q: And the “MEAN CORPUSCULAR HEMOGLOBIN” value (Rattus norvegicus [1]; tissue Blood)?
A: Its value is 23.1 pg.

Q: What about the “MEAN CORPUSCULAR HEMOGLOBIN CONCENTRATION” value (Rattus norvegicus [1]; tissue Blood) of the same sequence?
A: Its value is 36.82 G/DL.

Q: And the MONOCYTE (Rattus norvegicus [1]; tissue Blood)?
A: The MONOCYTE was 2.6%.

Q: What about the NEUTROPHIL (Rattus norvegicus [1]; tissue Blood) of the same sequence?
A: Its NEUTROPHIL is 13.4%.

Q: What about the “NUCLEATED RED BLOOD CELLS” value (Rattus norvegicus [1]; tissue Blood) of the same sequence?
A: Its value is 0 /100WBC.

Q: What about the “PLATELET COUNT” value (Rattus norvegicus [1]; tissue Blood) of the same sequence?
A: The value was 1348 x10E3/uL.

Q: What about the “ALANINE AMINOTRANSFERASE” value (Rattus norvegicus [1]; tissue Plasma) of the same sequence?
A: The value was 39.6 u/L.

Q: What about the ALBUMIN (Rattus norvegicus [1]; tissue Plasma) of the same sequence?
A: Its ALBUMIN is 4.42 G/DL.

Q: And the “ALKALINE PHOSPHATASE” value (Rattus norvegicus [1]; tissue Plasma)?
A: Its value is 217.6 u/L.

Q: And the “ASPARTATE AMINOTRANSFERASE” value (Rattus norvegicus [1]; tissue Plasma)?
A: The value was 59.8 u/L.

Q: What about the “BLOOD UREA NITROGEN” value (Rattus norvegicus [1]; tissue Plasma) of the same sequence?
A: Its value is 15.2 mg/dL.

Q: What about the “CARBON DIOXIDE” value (Rattus norvegicus [1]; tissue Plasma) of the same sequence?
A: Its value is 25 mmol/L.

Q: What about the CHOLESTEROL (Rattus norvegicus [1]; tissue Plasma) of the same sequence?
A: The CHOLESTEROL was 87.2 mg/dL.

Q: And the CREATININE (Rattus norvegicus [1]; tissue Plasma)?
A: Its CREATININE is 0.19 mg/dL.

Q: And the GLUCOSE (Rattus norvegicus [1]; tissue Plasma)?
A: Its GLUCOSE is 182.6 mg/dL.

Q: And the LIPASE (Rattus norvegicus [1]; tissue Plasma)?
A: The LIPASE was 10.2 u/L.

Q: And the PHOSPHORUS (Rattus norvegicus [1]; tissue Plasma)?
A: Its PHOSPHORUS is 12.74 mg/dL.

Q: What about the “TOTAL BILIRUBIN” value (Rattus norvegicus [1]; tissue Plasma) of the same sequence?
A: The value was 0.22 mg/dL.

Q: And the “TOTAL PROTEIN” value (Rattus norvegicus [1]; tissue Plasma)?
A: The value was 6.84 G/DL.

Q: And the “URIC ACID” value (Rattus norvegicus [1]; tissue Plasma)?
A: Its value is 2.68 mg/dL.

Q: And the “ABSOLUTE EOSINOPHIL” value (Rattus norvegicus [2]; tissue Blood)?
A: The value was 50.33 CELLS/uL.

Q: And the “ABSOLUTE LYMPHOCYTE” value (Rattus norvegicus [2]; tissue Blood)?
A: The value was 10757 CELLS/uL.

Q: What about the “ABSOLUTE MONOCYTE” value (Rattus norvegicus [2]; tissue Blood) of the same sequence?
A: Its value is 373 CELLS/uL.

Q: And the “ABSOLUTE SEGMENTED NEUTROPHIL” value (Rattus norvegicus [2]; tissue Blood)?
A: Its value is 1253 CELLS/uL.

Q: And the BASOPHIL (Rattus norvegicus [2]; tissue Blood)?
A: The BASOPHIL was 0%.

Q: And the EOSINOPHIL (Rattus norvegicus [2]; tissue Blood)?
A: Its EOSINOPHIL is 0.33%.

Q: And the “ERYTHROCYTE COUNT” value (Rattus norvegicus [2]; tissue Blood)?
A: The value was 5.36 x10E6/uL.

Q: And the HEMATOCRIT (Rattus norvegicus [2]; tissue Blood)?
A: The HEMATOCRIT was 33.23%.

Q: And the HEMOGLOBIN (Rattus norvegicus [2]; tissue Blood)?
A: The HEMOGLOBIN was 12.53 G/DL.

Q: And the “LEUKOCYTE COUNT” value (Rattus norvegicus [2]; tissue Blood)?
A: Its value is 12.43 x10E3/uL.

Q: And the LYMPHOCYTE (Rattus norvegicus [2]; tissue Blood)?
A: The LYMPHOCYTE was 87%.

Q: What about the “MEAN CORPUSCULAR HEMOGLOBIN” value (Rattus norvegicus [2]; tissue Blood) of the same sequence?
A: The value was 23.47 pg.

Q: And the “MEAN CORPUSCULAR HEMOGLOBIN CONCENTRATION” value (Rattus norvegicus [2]; tissue Blood)?
A: The value was 37.7 G/DL.

Q: What about the MONOCYTE (Rattus norvegicus [2]; tissue Blood) of the same sequence?
A: The MONOCYTE was 3%.

Q: What about the NEUTROPHIL (Rattus norvegicus [2]; tissue Blood) of the same sequence?
A: The NEUTROPHIL was 9.67%.

Q: And the “NUCLEATED RED BLOOD CELLS” value (Rattus norvegicus [2]; tissue Blood)?
A: Its value is 0 /100WBC.

Q: And the “PLATELET COUNT” value (Rattus norvegicus [2]; tissue Blood)?
A: The value was 1189.67 x10E3/uL.

Q: What about the “ALANINE AMINOTRANSFERASE” value (Rattus norvegicus [2]; tissue Plasma) of the same sequence?
A: Its value is 42.67 u/L.

Q: What about the ALBUMIN (Rattus norvegicus [2]; tissue Plasma) of the same sequence?
A: Its ALBUMIN is 4.5 G/DL.

Q: What about the “ALKALINE PHOSPHATASE” value (Rattus norvegicus [2]; tissue Plasma) of the same sequence?
A: The value was 371.33 u/L.

Q: What about the “ASPARTATE AMINOTRANSFERASE” value (Rattus norvegicus [2]; tissue Plasma) of the same sequence?
A: Its value is 77 u/L.

Q: What about the “BLOOD UREA NITROGEN” value (Rattus norvegicus [2]; tissue Plasma) of the same sequence?
A: The value was 11.67 mg/dL.

Q: And the “CARBON DIOXIDE” value (Rattus norvegicus [2]; tissue Plasma)?
A: Its value is 26.33 mmol/L.

Q: What about the CREATININE (Rattus norvegicus [2]; tissue Plasma) of the same sequence?
A: Its CREATININE is 0.18 mg/dL.

Q: And the “LACTATE DEHYDROGENASE” value (Rattus norvegicus [2]; tissue Plasma)?
A: The value was 127.67 u/L.

Q: What about the LIPASE (Rattus norvegicus [2]; tissue Plasma) of the same sequence?
A: The LIPASE was 8.33 u/L.

Q: And the PHOSPHORUS (Rattus norvegicus [2]; tissue Plasma)?
A: The PHOSPHORUS was 12.47 mg/dL.

Q: And the POTASSIUM (Rattus norvegicus [2]; tissue Plasma)?
A: Its POTASSIUM is 6.09 MEQ/L.

Q: And the “TOTAL BILIRUBIN” value (Rattus norvegicus [2]; tissue Plasma)?
A: The value was 0.13 mg/dL.

Q: And the “TOTAL PROTEIN” value (Rattus norvegicus [2]; tissue Plasma)?
A: The value was 6.33 G/DL.

Q: And the “URIC ACID” value (Rattus norvegicus [2]; tissue Plasma)?
A: Its value is 1.03 mg/dL.
